Data published in patent US6468983B2, “RNase L activators and antisense oligonucleotides effective to treat telomerase-expressing malignancies” (The Cleveland Clinic Foundation, priority 1997, dated 2002).

What was measured:
telomerase RNA (hTR) = test: RT-PCR for telomerase RNA in oligonucleotide-treated U251-MG cells; format: cell-based, human; conditions: oligonucleotide 5 μM, 5 hours treatment
Method: Chimeric oligonucleotides were synthesised on solid supports and purified as described previously (Torrence et al 1993; Lesiak et al 1993; Xiao et al 1994, 1996; Cirino et al 1997). Tumor cells were seeded at 3×10^5 cells/well (3 ml) in 6-well plates and incubated overnight at 37° C. Cells were then treated with oligonucleotides (5 μM). Five hours later total RNA was isolated by using Trizol solution (GIBCO BRL, Grand Island, N.Y.). Expression of telomerase RNA was determined with RT-PCR. The RNA was reverse transcribed into complementary DNA (cDNA) with random oligos used as a primer, and then the cDNA was diluted three times with buffer 10×PCR buffer (Perkin-Elmer, Norwalk, Conn.) at a final concentration of 1:4. The DNA at each dilution was amplified using primers to antisense and sense sequences on opposite sides of the human telomerase RNA sequence, 5′-[…]-3′ (SEQ ID NO:4) and 5′[…]-3′ […], respectively, or to the GAPDH coding sequence, 5′-[…]-3′ […] and 5′[…]-3′ (SEQ ID NO:7), respectively, producing DNA fragments of 400 bp for telomerase cDNA and 508 bp for the GAPDH cDNA, respectively. The PCR went for 30 cycles (94° C., 1 min; 55° C., 1 min; 72° C., 2 min) for telomerase and 30 cycles (94° C., 1 min; 60° C., 1 min; 74° C., 3 min) for GAPDH. The PCR products were analyzed by 1.2% agarose gel electrophoresis and ethidium bromide staining.
Aliquots of U251-MG cells were treated with the “active” oligonucleotide and the two controls for 5 hours. RNA was then prepared from these cells and subjected to RT-PCR to detect telomerase RNA. […] In contrast, telomerase RNA (hTR) was present in cells treated with the control oligonucleotides; spA2-anti-hTR and spA4-anti-(M6)hTR. Thus, hTR could be selectively destroyed in U251-MG cells. Since the RT-PCR assay is not quantitative, it was not possible to assess whether treatment with the spA2-anti-hTR , which has the fully complementary target sequence, had any antisense effect by itself (see below). […]

[1] = system: normal diploid human fibroblasts (MRC5); test: Viable cell count, daily oligonucleotide plus lipofectamine; format: cell-based; conditions: MRC5, 0.5 micromolar daily plus lipofectamine, 8 days
Method: (§1) Cells (10,000/well) were seeded on 96 well tissue culture dishes, and treated every 24 hours. A 10× concentrated mixture of oligonucleotides plus lipofectamine in water was prepared containing 5 micromolar oligonucleotide and 80 microgram per ml lipofectamine™ (Gibco/BRL) and incubated for 10 min at room temperature. Media was removed from the cells, 10 microliters of the oligonucleotide/lipofectamine mixture was added directly to the cultured cells followed by 90 microliters of media plus serum. The media was changed with oligonucleotide/lipofectamine treatments every 24 h. Cells were passaged when the control cells reached confluency, and viable cells were counted after staining with Trypan Blue (GibcoBRL). The numbers of cells treated only with lipofectamine were used as the control to calculate percentages of cell survival or viability.
(§2) For the experiments described below, lipofectamine was used to enhance the uptake of the oligonucleotides into cells (Williams et al., 1996, Leukemia 10:[…]). […] Using this protocol for 8 days, SpA4-anti-hTR reduced cell viability by 9% and 35% in the normal human lung cell line, WI 38, and in normal diploid human fibroblasts (MRC5), respectively, while causing a 90% reduction in the viability of U373 cells.

[2] = system: normal human lung cell line, WI 38; test: as above; format: cell-based; conditions: WI 38, 0.5 micromolar daily plus lipofectamine, 8 days
Method: as §1, §2

[3] = system: breast cancer cell line, MDA468; test: as above; format: cell-based, human; conditions: MDA468, 0.5 micromolar daily plus lipofectamine
Method: as §1
(§3) Similarly, the viability of the breast cancer cell line, MDA468, was reduced by 64% by SpA4-anti-hTR, while the control oligonucleotides reduced cell viability by <20% (FIG. 6). Viability of the human melanoma cell line, A375, was reduced by 43% in three days by SpA4-anti-hTR, while the control oligonucleotides had no effect (FIG. 7). […] Viability of a third human melanoma cell line, SK-MEL-5, was reduced by 43% by SpA4-anti-hTR, with minimal effects by the control oligonucleotides (FIG. 7). Two prostate tumor cells lines, PC3 and DU145, were suppressed by SpA4-anti-hTR treatments by 45% and 60%, respectively (FIGS. 6 and 10). […] The viability of the malignant glioma cell line, U373, was reduced by about 60% in 3 days, with intermediate effects by the control oligonucleotides (FIG. 6). Therefore, the proliferation and survival of every tumor cell type tested was inhibited by SpA4-anti-hTR. […] In contrast, there was no apoptosis detected in the control cells treated with lipofectamine without oligonucleotide (FIG. 12 upper panel).

[4] = system: prostate tumor cell line DU145; test: as above; format: cell-based, human; conditions: DU145, 0.5 micromolar daily plus lipofectamine
Method: as §1, §3

[5] = system: prostate tumor cell line PC3; test: as above; format: cell-based, human; conditions: PC3, 0.5 micromolar daily plus lipofectamine
Method: as §1, §3

[6] = system: renal cell carcinoma cell line, RCC; test: as above; format: cell-based, human; conditions: 0.5 micromolar daily plus lipofectamine
Method: as §1, §3

Sp5′A2′p(5′A2p)3-[(Bu)p]2-5′GCG CGG GGA GCA AAA GCA C3′-3′T5′ (antisense GCGCGGGGAGCAAAAGCAC; 5'-thiophosphate 2-5A tetramer, butanediol linkers, 3'-3'T cap, chemistry not fully specified) [spA4-anti-hTR, 2-5A tetramer linked by butanediol linkers to 19-mer antisense against human telomerase RNA nucleotides 76 to 94]
telomerase RNA (hTR) detected by RT-PCR (telomerase RNA (hTR)): no detectable telomerase RNA
reduction in cell viability [1]: 35%
reduction in cell viability [2]: 9%
effect on growth (in words) [3]: specifically suppressed growth
reduction in viability [3]: 64%
effect on growth/viability (in words) [4]: specifically suppressed growth
suppression of cells [4]: 60%
effect on growth/viability (in words) [5]: specifically suppressed growth
suppression of cells [5]: 45%
effect on growth/viability (in words) ([6]; 3 days): specifically suppressed growth
reduction in viability ([6]; three days): 61%
